Inhibition data for 30 molecules are collected here from patent publication US20100137313A1 (ASTRAZENECA AB, priority 2008, published 2010).

Chain of S. pneumoniae Topoisomerase IV ATPase (ParE) (Q59961 whole entry): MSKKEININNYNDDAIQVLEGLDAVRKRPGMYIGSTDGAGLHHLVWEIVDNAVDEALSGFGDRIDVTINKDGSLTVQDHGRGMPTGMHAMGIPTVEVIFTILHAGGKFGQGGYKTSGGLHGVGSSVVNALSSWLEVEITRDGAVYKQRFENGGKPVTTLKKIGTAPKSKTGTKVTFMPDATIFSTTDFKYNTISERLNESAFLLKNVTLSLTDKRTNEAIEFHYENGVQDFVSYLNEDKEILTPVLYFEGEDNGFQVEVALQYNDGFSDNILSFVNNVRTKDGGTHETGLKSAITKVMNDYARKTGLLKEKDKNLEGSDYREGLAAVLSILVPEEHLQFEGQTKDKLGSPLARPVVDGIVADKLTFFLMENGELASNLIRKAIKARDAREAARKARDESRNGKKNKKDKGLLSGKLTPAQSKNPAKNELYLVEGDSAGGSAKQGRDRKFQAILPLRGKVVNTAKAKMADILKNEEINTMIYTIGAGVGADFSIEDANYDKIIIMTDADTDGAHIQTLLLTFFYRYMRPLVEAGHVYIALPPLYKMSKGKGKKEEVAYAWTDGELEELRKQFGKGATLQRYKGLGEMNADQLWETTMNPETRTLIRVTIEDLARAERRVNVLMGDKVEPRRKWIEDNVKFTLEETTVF

The target in this assay is S. pneumoniae Topoisomerase IV ATPase (ParE) (Streptococcus pneumoniae serotype 4, UniProt Q59961). Put plainly: S. pneumoniae Topoisomerase IV ATPase inhibition. It counts as biochemical. As to conditions: values marked * are an average of two or more data points, read-out: % Inh (13 μM) of S. pneumoniae Topoisomerase IV ATPase. The method in brief:
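S. pneumoniae ParE (1.25 nM) ATPase with 160 μM ATP and 5 μg/ml sheared DNA in pH 8.0 Tris, Mg2+, DTT, Brij-35; phosphate detected by malachite green/molybdate at 650 nm. Normalised to 2% DMSO (0%) and 20 μM EDTA (100%); IC50 from 10 concentrations.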
As for `O=C(O)/C=C/c1cccc(-c2cnc(Nc3ccc(F)c(Cl)c3)nc2-n2cc(-c3ccccn3)cn2)c1` [Example 567, (2E)-3-(3-{2-[(3-chloro-4-fluorophenyl)amino]-4-[4-(pyridin-2-yl)-1H-pyrazol-1-yl]pyrimidin-5-yl}phenyl)prop-2-enoic acid], the inhibition at 13 µM is 100%.

Consider `Cc1cc(C(F)(F)F)nn1-c1nc(Nc2cc(F)cc(C#N)c2)ncc1-c1cncc(C(=O)O)c1` [Example 1121, 5-(2-(3-cyano-5-fluorophenylamino)-4-(5-methyl-3-(trifluoromethyl)-1H-pyrazol-1-yl)pyrimidin-5-yl)nicotinic acid], for which the inhibition at 13 µM is 99%.

As for `COCCONC(=O)c1cc(-c2cnc(Nc3cc(OC)cc(OC)c3)nc2-n2ccc(C(F)(F)F)n2)cnc1OC` [Example 1168, 5-(2-(3,5-dimethoxyphenylamino)-4-(3-(trifluoromethyl)-1H-pyrazol-1-yl)pyrimidin-5-yl)-2-methoxy-N-(2-methoxyethoxy)nicotinamide], the inhibition at 13 µM came out at 100%.

For `CN(C)CCCNc1nc(Nc2ccc(F)c(Cl)c2)ncc1-c1cncnc1` [Example 32, N^2-(3-chloro-4-fluorophenyl)-N^4-[3-(dimethylamino)propyl]-5,5′-bipyrimidine-2,4-diamine], the inhibition at 13 µM was 91.1%.

As for `COc1cc(Nc2ncc(-c3cnc(SC)c(C(=O)O)c3)c(-n3nc(C(F)(F)F)cc3C)n2)cc(OC)c1` [Example 854, 5-{2-[(3,5-dimethoxyphenyl)amino]-4-[5-methyl-3-(trifluoromethyl)-1H-pyrazol-1-yl]pyrimidin-5-yl}-2-(methylsulfanyl)pyridine-3-carboxylic acid], the inhibition at 13 µM worked out at 100%.

Take `COc1cc(C)cc(Nc2ncc(-c3cnc(OC)c(C(=O)O)c3)c(-n3ccc(C(F)(F)F)n3)n2)c1` [Example 760]: the inhibition at 13 µM was found to be 100%.

As for `CCCS(=O)(=O)NC(=O)c1cc(-c2cnc(Nc3cc(OC)cc(OC)c3)nc2-n2ccc(C(F)(F)F)n2)cnc1OC` [Example 816, 5-{2-[(3,5-dimethoxyphenyl)amino]-4-[3-(trifluoromethyl)-1H-pyrazol-1-yl]pyrimidin-5-yl}-2-methoxy-N-(propylsulfonyl)pyridine-3-carboxamide], the inhibition at 13 µM amounted to 100%.

For the molecule `COc1cc(Nc2ncc(-c3cncnc3)c(-n3nc(C(F)(F)F)cc3C)n2)cc(C(F)(F)F)c1` [Example 882, N-(3-methoxy-5-(trifluoromethyl)phenyl)-4-(5-methyl-3-(trifluoromethyl)-1H-pyrazol-1-yl)-5,5′-bipyrimidin-2-amine], the inhibition at 13 µM worked out at 100%.

In the case of `Cc1cc(C(F)(F)F)nn1-c1nc(Nc2ccc(F)c(Cl)c2)ncc1-c1cncc(C(=O)O)c1` [Example 319, 5-{2-[(3-chloro-4-fluorophenyl)amino]-4-[5-methyl-3-(trifluoromethyl)-1H-pyrazol-1-yl]pyrimidin-5-yl}pyridine-3-carboxylic acid], the inhibition at 13 µM is 90.6%.

For the molecule `O=C(O)/C=C/c1cccc(-c2cnc(Nc3ccc(F)c(Cl)c3)nc2-n2ccnn2)c1` [Example 333, (2E)-3-(3-{2-[(3-chloro-4-fluorophenyl)amino]-4-(1H-1,2,3-triazol-1-yl)pyrimidin-5-yl}phenyl)prop-2-enoic acid], the inhibition at 13 µM was 69.8%.

Regarding `Cc1cc(C(F)(F)F)nn1-c1nc(Nc2ccc(F)c(Cl)c2)ncc1-c1cnc(OCCS(C)(=O)=O)c(C(=O)O)c1` [Example 956, 5-(2-(3-chloro-4-fluorophenylamino)-4-(5-methyl-3-(trifluoromethyl)-1H-pyrazol-1-yl)pyrimidin-5-yl)-2-(2-(methylsulfonyl)ethoxy)nicotinic acid], the inhibition at 13 µM stood at 100%.

On to `CN(C)CCCNc1nc(Nc2ccc(F)c(Cl)c2)ncc1-c1ccc(CCC(=O)O)cc1` [Example 27, 3-[4-(2-[(3-chloro-4-fluorophenyl)amino]-4-{[3-(dimethylamino)propyl]-amino}pyrimidin-5-yl)phenyl]propanoic acid], for which the inhibition at 13 µM was determined as 89.2%.

For the molecule `COc1cccc(-c2cnc(Nc3ccc(F)c(Cl)c3)nc2-n2ccc(C(F)(F)F)n2)n1` [Example 876, N-(3-chloro-4-fluorophenyl)-5-(6-methoxypyridin-2-yl)-4-(3-(trifluoromethyl)-1H-pyrazol-1-yl)pyrimidin-2-amine], the inhibition at 13 µM was 0%.

Take `O=C(O)c1cncc(-c2cnc(Nc3ccc(F)c(Cl)c3)nc2NCCc2ccccn2)c1` [Example 228, 5-[2-(3-Chloro-4-fluoro-phenylamino)-4-(2-pyridin-2-yl-ethylamino)-pyrimidin-5-yl]-nicotinic acid]: the inhibition at 13 µM was found to be 78.5%.

Turning to `Fc1ccc(Nc2ncc(-c3cncnc3)c(-n3nnc4ncccc43)n2)cc1Cl` [Example 88, N-(3-chloro-4-fluorophenyl)-4-(1H-[1,2,3]triazolo[4,5-b]pyridin-1-yl)-5,5′-bipyrimidin-2-amine], the inhibition at 13 µM is 102%.

Consider `O=C(O)c1cncc(-c2cnc(Nc3ccc(F)c(Cl)c3)nc2NCc2ccco2)c1` [Example 237, 5-[2-[(3-chloro-4-fluorophenyl)amino]-4-(furan-2-ylmethylamino)pyrimidin-5-yl]pyridine-3-carboxylic acid], for which the inhibition at 13 µM was 85.4%.

With `O=C(O)c1cncc(-c2cnc(Nc3ccc(F)c(Cl)c3)nc2NCCCc2nc3ccccc3[nH]2)c1` [Example 271, 5-(4-(3-(1H-benzo[d]imidazol-2-yl)propylamino)-2-(3-chloro-4-fluorophenylamino)-pyrimidin-5-yl)nicotinic acid], the inhibition at 13 µM turned out to be 86.6%.

Regarding `COc1cc(Nc2ncc(-c3cnc(OC)c(C#N)c3)c(-n3nc(C(F)(F)F)cc3C)n2)cc(OC)c1` [Example 868, 5-(2-(3,5-dimethoxyphenylamino)-4-(5-methyl-3-(trifluoromethyl)-1H-pyrazol-1-yl)pyrimidin-5-yl)-2-methoxynicotinonitrile], the inhibition at 13 µM turned out to be 6%.

For `Cc1cc(C(F)(F)F)nn1-c1nc(Nc2cc(F)cc(C#N)c2)ncc1-c1cccc(/C=C/C(=O)O)c1` [Example 1116, (E)-3-(3-(2-(3-cyano-5-fluorophenylamino)-4-(5-methyl-3-(trifluoromethyl)-1H-pyrazol-1-yl)pyrimidin-5-yl)phenyl)acrylic acid], the inhibition at 13 µM was 97%.

Turning to `O=C(O)/C=C/c1cccc(-c2cnc(Nc3ccc(F)c(Br)c3)nc2N2CCOCC2)c1` [Example 454], the inhibition at 13 µM turned out to be 92%.

Consider `COc1cc(C)cc(Nc2ncc(-c3cnc(OC)c(C(=O)NS(C)(=O)=O)c3)c(-n3nc(C(F)(F)F)cc3C)n2)c1` [Example 857, 2-methoxy-5-{2-[(3-methoxy-5-methylphenyl)amino]-4-[5-methyl-3-(trifluoromethyl)-1H-pyrazol-1-yl]pyrimidin-5-yl}-N-(methylsulfonyl)pyridine-3-carboxamide], for which the inhibition at 13 µM turned out to be 100%.

Consider `O=S1(=O)CCN(CCCNc2nc(Nc3ccc(F)c(Cl)c3)ncc2-c2cncnc2)CC1` [Example 48, N^2-(3-chloro-4-fluorophenyl)-N^4-[3-(1,1-dioxo-1,4-thiazinan-4-yl)propyl]-5-pyrimidin-5-ylpyrimidine-2,4-diamine], for which the inhibition at 13 µM was determined as 79.8%.

Take `O=C(O)/C=C/c1cccc(-c2cnc(Nc3ccc(F)c(Cl)c3)nc2-n2cnc(C(F)(F)F)c2)c1` [Example 332, (2E)-3-(3-{2-[(3-chloro-4-fluorophenyl)amino]-4-[4-(trifluoromethyl)-1H-imidazol-1-yl]pyrimidin-5-yl}phenyl)prop-2-enoic acid]: the inhibition at 13 µM was 62.1%.

Take `COCCCNc1nc(Nc2ccc(F)c(Cl)c2)ncc1-c1ccc2c(c1)c(=O)c(C(=O)O)cn2CCOC` [Example 304, 6-(2-(3-chloro-4-fluorophenylamino)-4-(3-methoxypropylamino)-pyrimidin-5-yl)-1-(2-methoxyethyl)-4-oxo-1,4-dihydroquinoline-3-carboxylic acid]: the inhibition at 13 µM came to 55.8%.

On to `CONC(=O)c1cncc(-c2cnc(Nc3cc(OC)cc(OC)c3)nc2-n2ccc(C(F)(F)F)n2)c1` [Example 680, 5-{2-[(3,5-dimethoxyphenyl)amino]-4-[3-(trifluoromethyl)-1H-pyrazol-1-yl]pyrimidin-5-yl}-N-methoxypyridine-3-carboxamide], for which the inhibition at 13 µM is 100%.

Take `O=C(O)c1cncc(-c2cnc(Nc3ccc(F)c(Cl)c3)nc2NCc2ccccn2)c1` [Example 222, 5-{2-(3-Chloro-4-fluoro-phenylamino)-4-[(pyridin-2-ylmethyl)-amino]-pyrimidin-5-yl]-nicotinic acid]: the inhibition at 13 µM is 76.2%.

As for `CC(C)OCCNc1nc(Nc2ccc(F)c(Cl)c2)ncc1-c1cncnc1` [Example 52, N^2-(3-chloro-4-fluorophenyl)-N4-(2-propan-2-yloxyethyl)-5-pyrimidin-5-ylpyrimidine-2,4-diamine], the inhibition at 13 µM worked out at 69.5%.

As to `CCOC(=O)c1cncc(-c2cnc(Nc3ccc(F)c(Cl)c3)nc2NCCc2cccnc2)c1` [Example 102, 5-[2-(3-Chloro-4-fluoro-phenylamino)-4-(2-pyridin-3-yl-ethylamino)-pyrimidin-5-yl]-nicotinic acid ethyl ester], the inhibition at 13 µM was found to be 73.5%.

Turning to `CC(=O)Nc1cc(C(=O)O)cc(-c2cnc(Nc3ccc(F)c(Cl)c3)nc2-n2ccc(C(F)(F)F)n2)c1` [Example 1150, 3-acetamido-5-(2-(3-chloro-4-fluorophenylamino)-4-(3-(trifluoromethyl)-1H-pyrazol-1-yl)pyrimidin-5-yl)benzoic acid], the inhibition at 13 µM amounted to 100%.

Take `O=C(O)/C=C/c1cccc(-c2cnc(Nc3ccc(F)c(Cl)c3)nc2-n2cccc2)c1` [Example 315, (2E)-3-(3-{2-[(3-chloro-4-fluorophenyl)amino]-4-(1H-pyrrol-1-yl)pyrimidin-5-yl}phenyl)prop-2-enoic acid]: the inhibition at 13 µM was 62.8%.
